From patent US20240082242A1, “COMBINATION THERAPIES” (IMBRIA PHARMACEUTICALS, INC., priority 2021, published 2024)

Assays:
[1] = test system: radioactivity in the heart, skeletal muscle, and blood; experiment: Ex vivo quantification of radiotracer uptake by gamma counting; type: in vivo, rat
Protocol: Shortly after the final PET/CT scan, blood was taken from abdominal vein under anesthesia with isoflurane (3-5%), and then animals were euthanized by exsanguination. After thorough perfusion with PBS, the heart and skeletal muscle (right brachium) were harvested. Radioactivity in the heart, muscle, and blood was determined with a Wizard2 2480 automatic gamma counter (Perkin Elmer, Waltham, MA) and % ID/g was calculated for each organ.
The radioactivity in the heart, skeletal muscle, and blood was also determined with a gamma counter shortly after PET/CT imaging for further ex vivo validation.

[2] = test system: TAC-induced heart failure in mice; experiment: Transverse aortic constriction (TAC) model of heart failure; type: in vivo, mouse
Protocol: Studies were conducted to evaluate and compare the efficacy of the reference compound TMZ with CV-8814 and CV-1018972 on ventricular remodeling, preservation of heart function and prevention of fibrosis in a transverse aortic constriction (TAC) model of heart failure in mice.
FIG. 30 is a schematic of the transverse aortic constriction (TAC) protocol used to test the ability of various compounds to protect the heart against heart failure. The aortic arc was exposed via midline incision in the chest cavity of anesthetized mice. A 27-gauge needle was tied against the transverse aorta and then promptly removed to create a ligature constriction. In vivo cardiac function was assessed by transthoracic echocardiography performed at 24-hour, 3-week, and 6-week time-points after TAC. Ventricular remodeling was determined by evaluation of heart weights (HW) and heart weight to body weight ratios (HW/BW). At study termination, hearts were excised, fixed, sectioned at 6 μm and stained with Masson's trichome. The area of fibrosis in myocardial tissue was measured by computerized planimetry on five random fields per heart. A total of 65 to 75 fields were analyzed per treatment group and differences were analyzed by Student's t-test.
Three separate studies were performed to evaluate the efficacy of single agents and combinations with metabolic enhancers in the TAC model of heart failure. In the first study, mice were treated with either trimetazidine alone or trimetazidine+nicotinamide+succinate. In the second study, mice were treated with CV-8814 alone or trimetazidine+nicotinic acid+succinate. In the third study, mice were treated with […], CV-8814, or CV-8972. Overall, the activities of trimetazidine, CV-8814, and CV-8972 on most study endpoints were in good agreement across the three studies. In the third study, the three compounds were analyzed at equivalent mg/kg/day doses on a formula weight basis: 6 mg/kg/d for trimetazidine, 7.5 mg/kg/day for CV-8814; and 10 mg/kg/day for CV-8972. Therefore, the results from the third study are summarized here.

[3] = mouse, iv, 10 mg/kg
[4] = test system: fatty acid beta oxidation; experiment: PET imaging of 18F-FTHA uptake after CV-8972 injection; type: in vivo, rat
From the text: (§1) The effects of CV-8972, a partial fatty acid oxidation inhibitor, on glucose and fatty acid metabolism were investigated using non-invasive positron emission tomography (PET) imaging. The PET radiotracer ^18F fluorodeoxyglucose (FDG), a radiolabeled glucose analog, was used to evaluate cardiac glucose metabolism, and the PET radiotracer ^18F fluoro-6-thia-heptadecanoic acid (FTHA), a radiolabeled long-chain fatty acid (LCFA) analog, was used to evaluate fatty acid beta oxidation. Both radiotracers are “entrapped” in cells in a way that is proportional to either glucose or fatty acid metabolism. For example, high ^18F-FDG or ^18F-FTHA signal indicates high glucose or fatty acid metabolism, respectively, while, conversely, diminished uptake indicates lower metabolism.
(§2) PET imaging with ^18F-FDG and ^18F-FTHA was performed in healthy rats. PET images were acquired dynamically for 120 minutes after tracer injection to capture dynamic changes in cardiac glucose and fatty acid metabolism. For each tracer, animals were imaged twice, once after injection of vehicle (phosphate buffered saline, PBS) or CV-8972 (80 mg/3 mL/kg), subcutaneously injected to the back of animals 15 min prior to PET imaging.
(§3) FIG. 1 is a schematic of the positron emission tomography (PET) imaging study design used to monitor the uptake of ^18F-fluorodeoxyglucose (^18F-FDG) and ^18F-14(R,S)-(18)F-fluoro-6-thia-heptadecanoic acid (^18F-FTHA) into heart tissue of rats in response to treatment with CV-8972. To monitor uptake of ^18F-FDG, rats were fasted for 16 hours prior to day 1. On day 1, rats were given phosphate-buffered saline (PBS) at time 0, and 15 minutes later ^18F-FDG was administered and traced in vivo by PET for two hours following administration. Rats were again fasted for 16 hours prior to day 3. On day 3, rats were given CV-8972 at time 0, and 15 minutes later ^18F-FDG was administered and traced in vivo by PET for two hours following administration. Immediately following the second PET scan, the animals were sacrificed, and the levels of gamma radioactivity in the blood, heart, and skeletal muscle were measured. To monitor uptake of ^18F-FTHA, rats were allowed to eat prior to day 1. On day 1, rats were given PBS at time 0, and 15 minutes later ^18F-FTHA was administered and traced in vivo by PET for two hours following administration. Rats were allowed to eat prior to day 3. On day 3, rats were given CV-8972 at time 0, and 15 minutes later ^18F-FTHA was administered and traced in vivo by PET for two hours following administration. Immediately following the second PET scan, the animals were sacrificed, and the levels of gamma radioactivity in the blood, heart, and skeletal muscle were measured.
(§4) Dynamic positron emission tomography/computed tomography (PET/CT) imaging was obtained with a Mediso nanoScan 122S PET/CT system. Cardiac glucose and fatty acid metabolisms were visualized by tracking ^18F-FDG (NCM-USA LLC, NY, USA) and ^18F-FTHA (Department of Radiology, New York University School of Medicine, NY, USA), respectively. Before the ^18F-FDG scan, rats were fasted overnight for at least 16 hours to minimize the physiological uptake of the radiotracer to cardiomyocyte. Either vehicle (phosphate buffered saline) or CV-8972 (80 mg/3 mL/kg) was subcutaneously injected to the back of animals 15 min prior to PET imaging. Animals were then placed on the scanner, and high-resolution CT images was obtained. Following, dynamic PET was started at the same time as the injection of ^18F-FDG (37 MBq, 1 mCi/0.5 mL/body) via tail vein and recorded for 120 min. Each animal underwent 2 scan sessions, one after vehicle injection and another after CV-8972 injection, with 2 or more days interval (average 2.9 days, 2-6 days). The order of the 2 imaging sessions was randomized among rats. For ^18F-FTHA (37 MBq, 1 mCi/0.5 mL/body), animals received 2 scan sessions under same conditions as those for ^18F-FDG except for fed condition. […]

[5] = test system: cardiac glucose metabolism; experiment: PET imaging of 18F-FDG uptake after CV-8972 injection; type: in vivo, rat
From the text: as §1, §2, §3, §4

[6] = gamma counter shortly after PET/CT, CV-8972 80 mg/kg s.c., mean±SD
[7] = gamma counting, CV-8972 vs control
[8] = CV-8972 80 mg/kg s.c. vs PBS, fed rats
[9] = static analysis at 30 minutes, CV-8972 vs saline
[10] = two-compartment model, CV-8972 80 mg/kg s.c. vs PBS

SMILES: COc1ccc(CN2CCN(CCOC(=O)c3cccnc3)CC2)c(OC)c1OC [CV-8972, 2-[4-[(2,3,4-trimethoxyphenyl)methyl]piperazin-1-yl]ethyl pyridine-3-carboxylate]
- mean radioactivity of the heart, 18F-FDG [1, 6]: 4.25±1.03 % ID/g
- mean radioactivity of the heart, 18F-FTHA [1, 6]: 1.98±0.53 % ID/g
- radioactivity of skeletal muscle and blood vs control ([1]; gamma counting, 18F-FDG and 18F-FTHA): did not show clear differences
- fold of heart radioactivity over control, 18F-FDG [1, 7]: 5.6 fold
- fold of heart radioactivity over control, 18F-FTHA [1, 7]: 3.6 fold
- left ventricular fractional shortening (FS) at Week 3 ([2]; CV-8972 10 mg/kg/day, control 37%±3%): 47%±3%
- left ventricular fractional shortening (FS) at Week 6 ([2]; CV-8972 10, CV-8814 7.5 mg/kg/day, control 34%±3%): 46%±3%
- fibrosis of myocardial tissue after six weeks ([2]; Masson's trichome, percentage of fibrotic heart tissue, control 10.7±1): 6.6±0.6%
- isovolumic relaxation time (IVRT) at Week 6 ([2]; control 35±1): 31 ± 2 ms
- isovolumic relaxation time (IVRT) at the three-week assessment ([2]; control 36±1): 32 ± 1 ms
- left ventricular ejection fraction (EF) throughout the six-week study ([2]; third study, minipump): preserved
- heart weight to body weight ratio ([2]; third study, CV-8972 10 mg/kg/day, control 9.1±0.5): 7.4 ± 0.3 mg/g
- left ventricular mass ([2]; third study, CV-8972 10 mg/kg/day, control 195±12): 156 ± 10 mg
- heart weight ([2]; third study, subcutaneous osmotic minipump, CV-8972 10 mg/kg/day, control 270±14): 225 ± 11 mg
- conversion of CV-8972 in vivo [3]: rapidly converted to CV-8814
- 18F-FTHA blood signal, last 30 minutes (90-120 minutes) ([4]; CV-8972 80 mg/kg s.c. vs PBS): unaffected
- 18F-FTHA myocardial signal, last 30 minutes (90-120 minutes) ([4]; CV-8972 80 mg/kg s.c. vs PBS): slightly higher without reaching statistical significance
- 18F-FTHA signal in the blood, single dynamic frames [4, 8]: did not clearly affect
- 18F-FTHA uptake in the heart, single dynamic frames [4, 8]: no statistically significant changes
- 18F-FTHA uptake in the skeletal muscle, single dynamic frames [4, 8]: slightly higher uptake
- 18F-FTHA signal in the skeletal muscle, last 30 minutes (90-120 minutes) ([4]; CV-8972 80 mg/kg s.c. vs PBS, reached statistical significance): slightly higher signal
- initial fold increase of 18F-FTHA PET signal in heart after CV-8972 administration ([4]; from 18F-FTHA circulating in the blood compartment, followed by washout over 120 min): ~2 fold
- 18F-FTHA uptake into the myocardium and skeletal muscle by kinetic modeling ([4]; three-compartment model, CV-8972 80 mg/kg s.c. vs PBS): significantly higher uptake
- average SUV of 18F-FDG in the heart at 120 min ([5]; CV-8972 80 mg/3 mL/kg s.c. 15 min before PET, fasted healthy rats, mean±SD): 12.56±7.82
- 18F-FDG signal in the blood, single dynamic frames ([5]; CV-8972 80 mg/kg s.c. vs PBS): did not clearly affect
- 18F-FDG signal in the skeletal muscle and blood, last 30 minutes (90-120 minutes) ([5]; CV-8972 80 mg/kg s.c. vs PBS): slightly lower signal
- 18F-FDG uptake in skeletal muscle, single dynamic frames ([5]; CV-8972 80 mg/kg s.c. vs PBS): slightly lower
- 18F-FDG uptake in the myocardium, last 30 minutes of PET acquisition (90-120 minutes) ([5]; CV-8972 80 mg/kg s.c. vs PBS): significantly higher
- fold increase of heart 18F-FDG SUV at 120 min over control group ([5]; CV-8972 80 mg/kg s.c., vs PBS control 0.89±0.62): approximately 14 fold
- change in 18F-FDG SUV in skeletal muscle, static analysis [5, 9]: minimal change
- fold increase in 18F-FDG SUV in rat heart tissue, static analysis [5, 9]: 12 fold
- 18F-FDG myocardial uptake by kinetic modeling [5, 10]: significantly higher myocardial uptake
- 18F-FDG skeletal muscle uptake by kinetic modeling [5, 10]: lower
